Results from the NIST ThermoML archive (doi:10.1021/je034017j).

Legend:
[1] = xn = mol fraction of the nth substance listed; details: 101 kPa, Liquid
[2] = Liquid; for viscosity: 101.33 kPa; for mass density: 101 kPa

CCCCCCO [hexan-1-ol] + CCCCCCC(=O)OC
[1], x2 = 0
Details	kinematic viscosity [m2/s]	mass density [kg/m3]
293.15 K	6.61e-06	818.84
303.15 K	4.88e-06	811.56
313.15 K	3.69e-06	804.28

CCCCC(=O)OC [methyl pentanoate]
[2]
Details	mass density [kg/m3]	viscosity [mPa·s]
283.15 K	–	0.816
293.15 K	889.75	0.712
298.15 K	–	0.661
303.15 K	879.51	0.623
313.15 K	869.32	0.551

CCCCCCO [hexan-1-ol]
[2]
Details	mass density [kg/m3]	viscosity [mPa·s]
293.15 K	818.84	5.412
298.15 K	–	4.596
303.15 K	811.56	3.964
313.15 K	804.28	2.966

CCCCCCC(=O)OC [methyl heptanoate] + CCCCCCO
[1]
Details	kinematic viscosity [m2/s]	mass density [kg/m3]
293.15 K, x1 = 0.0702	5.11e-06	824.02
293.15 K, x1 = 0.1168	4.4e-06	827.4
293.15 K, x1 = 0.189	3.59e-06	832.46
293.15 K, x1 = 0.3018	2.76e-06	840.04
293.15 K, x1 = 0.3966	2.31e-06	846.13
293.15 K, x1 = 0.4898	1.99e-06	851.87
293.15 K, x1 = 0.594	1.74e-06	858.04
293.15 K, x1 = 0.7085	1.52e-06	864.51
293.15 K, x1 = 0.7917	1.42e-06	869.04
293.15 K, x1 = 0.8937	1.32e-06	874.45
293.15 K, x1 = 0.937	1.29e-06	876.69
293.15 K, x1 = 1	1.26e-06	879.96
303.15 K, x1 = 0.0753	3.81e-06	816.9
303.15 K, x1 = 0.12	3.35e-06	819.99
303.15 K, x1 = 0.1919	2.79e-06	824.84
303.15 K, x1 = 0.2963	2.24e-06	831.61
303.15 K, x1 = 0.4003	1.87e-06	838.05
303.15 K, x1 = 0.4934	1.64e-06	843.6
303.15 K, x1 = 0.5979	1.45e-06	849.6
303.15 K, x1 = 0.6849	1.32e-06	854.38
303.15 K, x1 = 0.8004	1.2e-06	860.53
303.15 K, x1 = 0.8676	1.15e-06	864
303.15 K, x1 = 0.9415	1.11e-06	867.77
303.15 K, x1 = 1	1.09e-06	870.73
313.15 K, x1 = 0.064	3.05e-06	808.63
313.15 K, x1 = 0.1198	2.62e-06	812.36
313.15 K, x1 = 0.1968	2.21e-06	817.35
313.15 K, x1 = 0.2986	1.83e-06	823.7
313.15 K, x1 = 0.3995	1.56e-06	829.76
313.15 K, x1 = 0.5299	1.32e-06	837.23
313.15 K, x1 = 0.6009	1.22e-06	841.13
313.15 K, x1 = 0.6925	1.12e-06	846.03
313.15 K, x1 = 0.8022	1.04e-06	851.72
313.15 K, x1 = 0.872	9.99e-07	855.24
313.15 K, x1 = 0.9368	9.78e-07	858.5
313.15 K, x1 = 1	9.55e-07	861.65

CCCCCCCC [octane]
[2]
Details	mass density [kg/m3]	viscosity [mPa·s]
283.15 K	–	0.614
293.15 K	702.54	0.542
298.15 K	–	0.508
303.15 K	694.35	0.483
313.15 K	686.12	0.43

CCCCCCC(=O)OC [methyl heptanoate]
[2]
Details	mass density [kg/m3]	viscosity [mPa·s]
283.15 K	–	1.32
293.15 K	879.96	1.112
298.15 K	–	1.023
303.15 K	870.73	0.95
313.15 K	861.65	0.823

CCCCCCCC [octane] + CCCCCCO
[1], x1 = 1
Details	kinematic viscosity [m2/s]	mass density [kg/m3]
293.15 K	7.71e-07	702.54
303.15 K	6.96e-07	694.35
313.15 K	6.27e-07	686.12

CCCCCCO [hexan-1-ol] + CCCCC(=O)OC
[1], Capillary tube (Ostwald / Ubbelohde) method, x2 = 0
Details	kinematic viscosity [m2/s]
293.15 K	6.609e-06
303.15 K	4.885e-06
313.15 K	3.688e-06

[1], x2 = 0
Details	mass density [kg/m3]
293.15 K	818.84
303.15 K	811.56
313.15 K	804.28
